Experimental data as given in publication PMC5778071, “Development of matrix metalloproteinase-targeted probes for lung inflammation detection with positron emission tomography” (Scientific Reports, 2018).

What was measured:
recombinant human MMP-9 = biological target: T1, recombinant human MMP-9 (Homo sapiens, UniProt P14780); assay: Competitive fluorogenic enzyme activity assay, MMP-9; format: biochemical; details: fluorogenic substrate 5 μM, 5 nM enzyme, 30 min; read-out: IC50 toward MMP-9
T1 construct: purchased R&D Systems 911-MP
Method: (§1) Determination of the IC50 toward human MMP-2, MMP-9, MMP-12 and MMP-13 was performed by a competitive enzyme activity assay according to a literature procedure. The assay was performed by incubating 5 μM of the synthesized fluorogenic peptide substrate Mca-Pro-Leu-Gly-Leu-Dpa(Dnp)-Ala-Arg-NH2 with 5 nM recombinant human MMP-2 (AS72005, Anaspec Inc., CA, USA), MMP-9 (911-MP, R&D Systems, MN, USA), MMP-12 (917-MP, R&D Systems) and MMP-13 (AS72011, Anaspec) along with various concentrations of ML5, I-ML5, PFB, PFP, IPFB, and IPFP (0.2–365 nM) in a buffer (pH 7.5, 50 mM tris(hydroxymethyl)aminomethane, 10 mM calcium chloride, 150 mM sodium chloride, and 0.01% Brij-35) containing 5% dimethyl sulfoxide. The increase in fluorescence over time was measured using a SpectraMax M2e microplate reader (Molecular Devices Inc., CA, USA) with an excitation wavelength of 325 nm and an emission wavelength of 395 nm. The fluorescence intensity after 30 min was plotted as a function of the concentration of each of the compounds on a logarithmic scale to produce an inhibition curve that was subsequently fit with a sigmoidal function by a least squares method. The IC50 values were calculated from the inhibition curves using GraphPad Prism 6 (GraphPad Software, Inc., CA, USA).

recombinant human MMP-12 = biological target: T2, recombinant human MMP-12 (Homo sapiens, UniProt P39900); assay: Competitive fluorogenic enzyme activity assay, MMP-12; format: biochemical; details: fluorogenic substrate 5 μM, 5 nM enzyme, 30 min; read-out: IC50 toward MMP-12
T2 construct: purchased R&D Systems 917-MP
Method: Determination of the IC50 toward human MMP-2, MMP-9, MMP-12 and MMP-13 was performed by a competitive enzyme activity assay according to a literature procedure. […] The increase in fluorescence over time was measured using a SpectraMax M2e microplate reader (Molecular Devices Inc., CA, USA) with an excitation wavelength of 325 nm and an emission wavelength of 395 nm. The fluorescence intensity after 30 min was plotted as a function of the concentration of each of the compounds on a logarithmic scale to produce an inhibition curve that was subsequently fit with a sigmoidal function by a least squares method. The IC50 values were calculated from the inhibition curves using GraphPad Prism 6 (GraphPad Software, Inc., CA, USA).

recombinant human MMP-2 = biological target: T3, recombinant human MMP-2 (Homo sapiens, UniProt P08253); assay: Competitive fluorogenic enzyme activity assay, MMP-2; format: biochemical; details: fluorogenic substrate 5 μM, 5 nM enzyme, 30 min; read-out: IC50 toward MMP-2
T3 construct: purchased Anaspec Inc. AS72005
T3 sequence (P08253 110-660): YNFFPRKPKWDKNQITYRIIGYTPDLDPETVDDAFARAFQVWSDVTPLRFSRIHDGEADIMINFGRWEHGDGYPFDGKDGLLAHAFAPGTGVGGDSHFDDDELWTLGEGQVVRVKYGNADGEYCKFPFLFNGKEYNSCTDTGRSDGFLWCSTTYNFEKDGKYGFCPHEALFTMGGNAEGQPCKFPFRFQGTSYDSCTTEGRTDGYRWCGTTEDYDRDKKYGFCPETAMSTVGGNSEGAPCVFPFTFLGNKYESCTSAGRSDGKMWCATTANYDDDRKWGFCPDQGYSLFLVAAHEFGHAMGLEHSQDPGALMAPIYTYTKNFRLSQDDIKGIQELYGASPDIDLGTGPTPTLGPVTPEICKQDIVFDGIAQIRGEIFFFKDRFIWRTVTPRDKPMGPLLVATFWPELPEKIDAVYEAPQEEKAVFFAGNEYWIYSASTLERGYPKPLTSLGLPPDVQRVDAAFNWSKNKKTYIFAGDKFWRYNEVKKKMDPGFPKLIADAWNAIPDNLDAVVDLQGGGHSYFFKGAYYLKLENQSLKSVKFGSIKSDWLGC
Method: as §1

MMP-9 = tested on: MMP-9; set-up: method as in PMID 25438884; details: fluorogenic inhibition assay; cited from earlier work
recombinant human MMP-13 = biological target: T4, recombinant human MMP-13 (Homo sapiens, UniProt P45452); assay: Competitive fluorogenic enzyme activity assay, MMP-13; format: biochemical; details: fluorogenic substrate 5 μM, 5 nM enzyme, 30 min; read-out: IC50 toward MMP-13
T4 construct: purchased Anaspec AS72011
Method: as §1

MMP-12 = tested on: MMP-12; set-up: method as in PMID 25438884; details: fluorogenic inhibition assay; cited from earlier work
[1] = set-up: method as in PMID 25822732; details: cited from earlier work

T1 sequence (P14780 94-707): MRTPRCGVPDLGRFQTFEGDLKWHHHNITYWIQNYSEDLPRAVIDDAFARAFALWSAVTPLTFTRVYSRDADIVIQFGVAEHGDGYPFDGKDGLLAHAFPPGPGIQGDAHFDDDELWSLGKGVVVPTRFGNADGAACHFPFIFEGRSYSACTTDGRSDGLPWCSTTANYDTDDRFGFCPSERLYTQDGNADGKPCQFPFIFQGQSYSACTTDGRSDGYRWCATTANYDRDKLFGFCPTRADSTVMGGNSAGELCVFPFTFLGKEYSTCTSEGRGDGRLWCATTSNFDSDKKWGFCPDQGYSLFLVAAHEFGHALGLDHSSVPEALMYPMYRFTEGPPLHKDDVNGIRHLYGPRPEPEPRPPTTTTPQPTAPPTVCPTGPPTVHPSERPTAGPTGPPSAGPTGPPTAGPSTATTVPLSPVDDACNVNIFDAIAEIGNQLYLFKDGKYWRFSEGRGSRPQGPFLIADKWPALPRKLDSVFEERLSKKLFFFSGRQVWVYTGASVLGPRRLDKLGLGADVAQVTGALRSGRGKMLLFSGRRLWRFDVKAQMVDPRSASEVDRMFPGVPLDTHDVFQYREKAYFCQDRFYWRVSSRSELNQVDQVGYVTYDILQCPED
T2 sequence (P39900 106-470): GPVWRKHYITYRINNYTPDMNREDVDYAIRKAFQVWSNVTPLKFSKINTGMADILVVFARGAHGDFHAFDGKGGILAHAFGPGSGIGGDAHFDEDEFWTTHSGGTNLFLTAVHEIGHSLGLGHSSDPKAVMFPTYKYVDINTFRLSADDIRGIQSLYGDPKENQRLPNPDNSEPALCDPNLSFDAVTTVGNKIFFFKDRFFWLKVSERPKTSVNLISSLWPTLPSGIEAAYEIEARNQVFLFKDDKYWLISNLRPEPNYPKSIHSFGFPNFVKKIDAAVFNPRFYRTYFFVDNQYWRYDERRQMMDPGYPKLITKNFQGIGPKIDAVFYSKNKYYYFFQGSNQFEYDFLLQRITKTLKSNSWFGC

| IC50 (recombinant human MMP-9) [nM] | IC50 (recombinant human MMP-12) [nM] | IC50 (recombinant human MMP-2) [nM] | IC50 (recombinant human MMP-13) [nM] | SMILES | IC50 (MMP-9) [nM] | IC50 (MMP-12) [nM] | accumulation ratio of lung to liver [1] |
| --- | --- | --- | --- | --- | --- | --- | --- |
| 37.9 ± 5.2 | 2.8 ± 0.4 | 9.6 ± 4.7 | 22.4 ± 8.1 | CC(C)C[C@H](CC(=O)NO)C(=O)N[C@@H](Cc1ccccc1)C(=O)N[C@@H](CCCCN)C(N)=O [ML5, reference compound] | 19.5 | 2 |  |
|  |  |  |  | CC(C)C[C@H](CC(=O)NO)C(=O)N[C@@H](Cc1ccccc1)C(=O)N[C@@H](CCCCNC(=O)c1ccc([18F])cc1)C(N)=O [^18F-FB-ML5] |  |  | < 0.1 |
